Experimental data published in patent US7041687B2, “Indazole compounds useful as protein kinase inhibitors” (Vertex Pharmaceuticals Incorporated, priority 2002, dated 2006).
One block for each molecule: values may come before it.

Key:
[1] = target: T1, PDK-1 (Homo sapiens, UniProt O15530); test: PDK-1 inhibition assay (radioactive-phosphate incorporation); assay type: biochemical; conditions: 40 μM ATP, 65 μM PDKtide, 25 nM PDK-1, 30° C.
T1 sequence (O15530 1-556): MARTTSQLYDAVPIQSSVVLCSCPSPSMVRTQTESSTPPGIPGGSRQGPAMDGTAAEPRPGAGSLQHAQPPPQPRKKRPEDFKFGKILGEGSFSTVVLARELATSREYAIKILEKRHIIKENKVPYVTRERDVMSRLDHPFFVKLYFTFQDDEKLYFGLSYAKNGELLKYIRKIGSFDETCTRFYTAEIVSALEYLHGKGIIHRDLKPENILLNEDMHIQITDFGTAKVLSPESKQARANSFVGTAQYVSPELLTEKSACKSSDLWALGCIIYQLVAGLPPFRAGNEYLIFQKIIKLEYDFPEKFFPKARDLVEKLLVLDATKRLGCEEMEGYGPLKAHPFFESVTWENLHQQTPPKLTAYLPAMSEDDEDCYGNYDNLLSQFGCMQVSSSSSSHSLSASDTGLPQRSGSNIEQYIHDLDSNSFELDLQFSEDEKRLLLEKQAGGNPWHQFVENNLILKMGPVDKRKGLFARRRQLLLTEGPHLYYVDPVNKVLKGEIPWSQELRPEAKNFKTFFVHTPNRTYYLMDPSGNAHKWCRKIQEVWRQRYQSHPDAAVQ

[2] = target: AKT-3 (Homo sapiens, UniProt Q9Y243); test: AKT-3 inhibition assay (standard coupled enzyme assay); assay type: biochemical; conditions: 170 μM ATP, 200 μM peptide, 45 nM AKT, 30° C.
AKT-3, sequence (Q9Y243 whole entry): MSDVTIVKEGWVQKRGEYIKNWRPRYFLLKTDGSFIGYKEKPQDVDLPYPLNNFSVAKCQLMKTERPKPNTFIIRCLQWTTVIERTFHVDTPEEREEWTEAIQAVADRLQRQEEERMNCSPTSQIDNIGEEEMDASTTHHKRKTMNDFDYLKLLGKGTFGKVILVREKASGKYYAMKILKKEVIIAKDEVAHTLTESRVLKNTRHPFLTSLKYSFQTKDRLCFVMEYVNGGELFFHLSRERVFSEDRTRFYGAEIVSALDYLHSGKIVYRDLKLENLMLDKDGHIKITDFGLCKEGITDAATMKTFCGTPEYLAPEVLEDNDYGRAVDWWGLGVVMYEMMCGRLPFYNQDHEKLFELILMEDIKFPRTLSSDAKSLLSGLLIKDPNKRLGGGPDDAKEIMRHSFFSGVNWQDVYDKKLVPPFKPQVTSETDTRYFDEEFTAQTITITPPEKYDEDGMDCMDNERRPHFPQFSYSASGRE

Ki [2]: 10000 to 20000 nM
Compound: O=C(Nc1ccc2[nH]ncc2c1)C(O)c1ccc(Br)cc1 (centres unmarked) [Compound I-37]

Ki [2]: < 1000 nM
Ki [1]: < 1000 nM
Compound: NCCC(C(=O)Nc1ccc2[nH]nc(-c3cccc(Cl)c3)c2c1)c1ccc(Cl)c(Cl)c1 (centres unmarked) [Compound I-253]

Ki [2]: < 1000 nM
Ki [1]: > 3000 nM
Compound: NCC(C(=O)Nc1ccc2[nH]ncc2c1)c1ccc(Cl)cc1F (centres unmarked) [Compound I-258]

Ki [2]: 1000 to 10000 nM
Compound: COC(=O)NCCC(C(=O)Nc1ccc2[nH]ncc2c1)c1ccc(Cl)c(Cl)c1 (centres unmarked) [Compound I-151]

Ki [1]: > 3000 nM
Compound: CC(C)c1cccc(-c2n[nH]c3ccc(NC(=O)C(CCN)c4ccccc4)cc23)c1 (centres unmarked) [Compound I-229]

Ki [2]: 1000 to 10000 nM
Compound: N[C@H](C(=O)Nc1ccc2[nH]ncc2c1)c1ccccc1 [Compound I-49]

Ki [2]: 10000 to 20000 nM
Compound: CCc1n[nH]c2ccc(NC(=O)[C@H](O)c3cccc(Cl)c3)cc12 [Compound I-79]

Ki [2]: 1000 to 10000 nM
Compound: NC(C(=O)Nc1ccc2[nH]ncc2c1)c1ccc2ccccc2c1 (centres unmarked) [Compound I-58]

Ki [2]: 1000 to 10000 nM
Compound: NCC(C(=O)Nc1ccc2[nH]ncc2c1)c1cccc(Cl)c1 (centres unmarked) [Compound I-157]

Ki [2]: < 1000 nM
Compound: NCCC(C(=O)Nc1ccc2[nH]ncc2c1)c1cccc(O)c1 (centres unmarked) [Compound I-115]

Ki [2]: < 1000 nM
Compound: NCCCNC(C(=O)Nc1ccc2[nH]ncc2c1)c1cccc(Cl)c1 (centres unmarked) [Compound I-60]

Ki [1]: > 3000 nM
Compound: CC(=O)OC(C(=O)Nc1ccc2[nH]ncc2c1)c1ccccc1 (centres unmarked) [Compound I-1020]

Ki [2]: < 1000 nM
Compound: CN(C)CCNC(C(=O)Nc1ccc2[nH]ncc2c1)c1cccc(Cl)c1 (centres unmarked) [Compound I-62]

Ki [2]: 1000 to 10000 nM
Compound: CCCNCCCNC(C(=O)Nc1ccc2[nH]ncc2c1)c1cccc(Cl)c1 (centres unmarked) [Compound I-68]

Ki [2]: 1000 to 10000 nM
Compound: NCCNC(C(=O)Nc1ccc2[nH]ncc2c1)c1ccc(Oc2ccccc2)c(Cl)c1 (centres unmarked) [Compound I-72]

Ki [2]: 10000 to 20000 nM
Compound: O=C(Nc1ccc2[nH]ncc2c1)C(NCCc1ccccn1)c1cccc(Cl)c1 (centres unmarked) [Compound I-66]

Ki [2]: 1000 to 10000 nM
Compound: CCNCCNC(C(=O)Nc1ccc2[nH]ncc2c1)c1cccc(Cl)c1 (centres unmarked) [Compound I-63]

Ki [1]: 1000 to 3000 nM
Compound: NCCC(C(=O)Nc1ccc2[nH]ncc2c1)c1cccc(O)c1 (centres unmarked) [Compound I-1007]

Ki [2]: 10000 to 20000 nM
Compound: O=C(Nc1ccc2[nH]ncc2c1)C(NCc1ccccn1)c1cccc(Cl)c1 (centres unmarked) [Compound I-65]

Ki [2]: < 1000 nM
Compound: O=C(Nc1ccc2[nH]ncc2c1)C(NCCNCc1ccccc1)c1cccc(Cl)c1 (centres unmarked) [Compound I-64]

Ki [1]: < 1000 nM
Compound: NCCC(C(=O)Nc1ccc2[nH]ncc2c1)c1ccccc1F (centres unmarked) [Compound I-1032]

Ki [2]: 1000 to 10000 nM
Compound: O=C(Cc1ccc(Cl)cc1)Nc1ccc2[nH]ncc2c1 [Compound I-5]

Ki [2]: 1000 to 10000 nM
Compound: NC(C(=O)Nc1ccc2[nH]ncc2c1)c1cccc(C(F)(F)F)c1 (centres unmarked) [Compound I-53]

Ki [1]: < 1000 nM
Compound: Cc1cccc(-c2n[nH]c3ccc(NC(=O)C(CCN)c4ccccc4)cc23)c1 (centres unmarked) [Compound I-238]

Ki [2]: < 1000 nM
Compound: NCC(=O)NC(C(=O)Nc1ccc2[nH]ncc2c1)c1cccc(Cl)c1 (centres unmarked) [Compound I-74, 2-(2-Amino-acetylamino)-2-(3-chloro-phenyl)-N-(1H-indazol-5-yl)-acetamide]

Ki [1]: > 3000 nM
Compound: O=C(Nc1ccc2[nH]ncc2c1)C(CCNCc1ccccc1)c1ccccc1F (centres unmarked) [Compound I-1025]

Ki [2]: < 1000 nM
Compound: CNCCNC(C(=O)Nc1ccc2[nH]ncc2c1)c1cccc(Cl)c1 (centres unmarked) [Compound I-61]

Ki [1]: > 3000 nM
Compound: COc1cccc(C(CCN)C(=O)Nc2ccc3[nH]nc(Nc4cccc(Cl)c4)c3c2)c1 (centres unmarked) [Compound I-1029]

Ki [2]: < 1000 nM
Compound: NCCNC(C(=O)Nc1ccc2[nH]ncc2c1)c1ccc(Cl)cc1 (centres unmarked) [Compound I-70]

Ki [2]: 1000 to 10000 nM
Compound: CNC(=O)NCCC(C(=O)Nc1ccc2[nH]ncc2c1)c1ccc(Cl)c(Cl)c1 (centres unmarked) [Compound I-152]

Ki [2]: 10000 to 20000 nM
Compound: COc1ccc(Br)cc1CC(=O)Nc1ccc2[nH]ncc2c1 [Compound I-94]

Ki [2]: 10000 to 20000 nM
Compound: NCC(C(=O)Nc1cc(-c2ccccc2)c2[nH]ncc2c1)c1ccc(Cl)c(Cl)c1 (centres unmarked) [Compound I-146]

Ki [1]: < 1000 nM
Compound: NCCC(C(=O)Nc1ccc2[nH]nc(-c3cccc(C(N)=O)c3)c2c1)c1ccccc1 (centres unmarked) [Compound I-248]

Ki [2]: 1000 to 10000 nM
Compound: COc1ccc(C(NCCN)C(=O)Nc2ccc3[nH]ncc3c2)cc1Cl (centres unmarked) [Compound I-71]

Ki [2]: 10000 to 20000 nM
Compound: N[C@@H](Cc1ccc(Cl)c(Cl)c1)C(=O)Nc1ccc2[nH]ncc2c1 [Compound I-95]

Ki [1]: > 3000 nM
Compound: CC(=O)O[C@@H](C(=O)Nc1ccc2[nH]ncc2c1)c1ccccc1 [Compound I-33]

Ki [2]: 1000 to 10000 nM
Compound: NC(C(=O)Nc1ccc2[nH]ncc2c1)c1ccc(Cl)cc1 (centres unmarked) [Compound I-50]

Continued, molecule first:

Compound: Cc1n[nH]c2ccc(NC(=O)CCC(NCc3ccccc3)c3ccccc3F)cc12 (centres unmarked) [Compound I-1024]
Ki [1]: > 3000 nM

Compound: CCN(CC)Cc1cccc(C(=O)Nc2n[nH]c3ccc(NC(=O)C(CCN)c4ccc(Cl)c(Cl)c4)cc23)c1 (centres unmarked) [Compound I-216]
Ki [2]: < 1000 nM

Compound: COc1cccc(C(CCN)C(=O)Nc2ccc3[nH]nc(Nc4cccc(C#N)c4)c3c2)c1 (centres unmarked) [Compound I-1031]
Ki [1]: > 3000 nM

Compound: CS(=O)(=O)c1cccc(C(=O)Nc2n[nH]c3ccc(NC(=O)C(CCN)c4ccc(Cl)c(Cl)c4)cc23)c1 (centres unmarked) [Compound I-221]
Ki [2]: < 1000 nM

Compound: NCCC(C(=O)Nc1ccc2[nH]nc(C(=O)NCc3ccccc3)c2c1)c1ccccc1 (centres unmarked) [Compound I-1036]
Ki [1]: 1000 to 3000 nM

Compound: CC(=O)c1n[nH]c2ccc(NC(=O)C(CN)c3ccc(Cl)c(Cl)c3)cc12 (centres unmarked) [Compound I-255]
Ki [2]: 1000 to 10000 nM

Compound: N#Cc1cccc(Nc2n[nH]c3ccc(NC(=O)[C@@H](CCN)c4c(F)ccc(Cl)c4F)cc23)c1 [Compound I-1048]
Ki [2]: 1000 to 10000 nM
Ki [1]: < 1000 nM

Compound: NCCC(C(=O)Nc1ccc2[nH]nc(NC(=O)c3cccc(Cn4ccnc4)c3)c2c1)c1ccc(Cl)c(Cl)c1 (centres unmarked) [Compound I-217]
Ki [2]: < 1000 nM

Compound: NCCC(C(=O)Nc1ccc2[nH]nc(-c3cccc(-c4ccccc4)c3)c2c1)c1ccccc1 (centres unmarked) [Compound I-228]
Ki [1]: 1000 to 3000 nM

Compound: CNc1n[nH]c2ccc(NC(=O)C(CCN)c3ccccc3OC)cc12 (centres unmarked) [Compound I-1019]
Ki [1]: > 3000 nM

Compound: CC(=O)c1cccc(C(=O)Nc2n[nH]c3ccc(NC(=O)C(CCN)c4ccc(Cl)c(Cl)c4)cc23)c1 (centres unmarked) [Compound I-220]
Ki [2]: < 1000 nM

Compound: NCCC(C(=O)Nc1ccc2[nH]nc(-c3ccc(C(N)=O)cc3)c2c1)c1ccccc1 (centres unmarked) [Compound I-262]
Ki [1]: < 1000 nM

Compound: NCCC(C(=O)Nc1ccc2[nH]nc(NC(=O)c3cccc(SC(F)F)c3)c2c1)c1ccc(Cl)c(Cl)c1 (centres unmarked) [Compound I-219]
Ki [2]: < 1000 nM

Compound: NCCC(C(=O)Nc1ccc2[nH]nc(-c3ccc(Oc4ccccc4)cc3)c2c1)c1ccccc1 (centres unmarked) [Compound I-265]
Ki [1]: < 1000 nM

Compound: NCCC(C(=O)Nc1ccc2[nH]nc(-c3ccc(CCC(=O)O)cc3)c2c1)c1ccccc1 (centres unmarked) [Compound I-264]
Ki [1]: < 1000 nM

Compound: NCCC(C(=O)Nc1ccc2[nH]nc(CNC(=O)c3ccccc3)c2c1)c1ccccc1 (centres unmarked) [Compound I-1042]
Ki [1]: > 3000 nM

Compound: NCCC(C(=O)Nc1ccc2[nH]nc(NC(=O)c3cccs3)c2c1)c1cccnc1 (centres unmarked) [Compound I-272]
Ki [1]: < 1000 nM

Compound: NCCC(C(=O)Nc1ccc2[nH]nc(NC(=O)c3cccc(CN4CCOCC4)c3)c2c1)c1ccc(Cl)c(Cl)c1 (centres unmarked) [Compound I-215]
Ki [2]: < 1000 nM

Compound: Cc1n[nH]c2ccc(NC(=O)C(CCN)c3ccsc3)cc12 (centres unmarked) [Compound I-1035]
Ki [1]: < 1000 nM

Compound: NCCC(C(=O)Nc1ccc2[nH]nc(-c3cccc(-c4ccccc4)c3)c2c1)c1ccc(Cl)c(Cl)c1 (centres unmarked) [Compound I-223]
Ki [2]: < 1000 nM

Compound: NCCC(C(=O)Nc1ccc2[nH]nc(-c3ccc(F)cc3)c2c1)c1ccccc1 (centres unmarked) [Compound I-1027]
Ki [1]: < 1000 nM

Compound: NCCC(C(=O)Nc1cc(-c2ccccc2Cl)c2[nH]ncc2c1)c1ccc(Cl)c(Cl)c1 (centres unmarked) [Compound I-148]
Ki [1]: > 3000 nM

Compound: NCCC(C(=O)Nc1ccc2[nH]nc(-c3cccc(C(F)(F)F)c3)c2c1)c1ccc(Cl)c(Cl)c1 (centres unmarked) [Compound I-224]
Ki [2]: < 1000 nM

Compound: NCCC(C(=O)Nc1ccc2[nH]nc(-c3cccc(OC(F)(F)F)c3)c2c1)c1ccccc1 (centres unmarked) [Compound I-239]
Ki [1]: 1000 to 3000 nM

Compound: NCCC(C(=O)Nc1ccc2[nH]nc(-c3cccc(OC(F)(F)F)c3)c2c1)c1ccc(Cl)c(Cl)c1 (centres unmarked) [Compound I-256]
Ki [2]: < 1000 nM

Compound: Cc1n[nH]c2ccc(NC(=O)C(CCN)c3ccco3)cc12 (centres unmarked) [Compound I-1037]
Ki [1]: > 3000 nM

Compound: COc1cccc(C(CCN)C(=O)Nc2ccc3[nH]nc(Nc4cccc(C(N)=O)c4)c3c2)c1 (centres unmarked) [Compound I-1030]
Ki [1]: > 3000 nM

Compound: Nc1n[nH]c2ccc(NC(=O)Cc3ccc(Cl)c(Cl)c3)cc12 [Compound I-83]
Ki [2]: 1000 to 10000 nM

Compound: O=C(CCC(C(=O)N1CCN(Cc2ccccc2)CC1)c1ccccc1)Nc1ccc2[nH]ncc2c1 (centres unmarked) [Compound I-1015]
Ki [1]: > 3000 nM

Compound: NCCC(C(=O)Nc1ccc2[nH]nc(NC(=O)Cc3ccccc3)c2c1)c1ccc(Cl)c(Cl)c1 (centres unmarked) [Compound I-192]
Ki [2]: 1000 to 10000 nM

Compound: NCCC(C(=O)Nc1ccc2[nH]nc(NC(=O)c3cccc(CN4CCNCC4)c3)c2c1)c1ccc(Cl)c(Cl)c1 (centres unmarked) [Compound I-218]
Ki [2]: < 1000 nM

Compound: NCCC(C(=O)Nc1ccc2[nH]nc(NC(=O)c3cccc(CN4CCCCC4)c3)c2c1)c1ccc(Cl)c(Cl)c1 (centres unmarked) [Compound I-214]
Ki [2]: < 1000 nM

Compound: COc1cccc(C(CCNCc2ccccc2)C(=O)Nc2ccc3[nH]nc(C)c3c2)c1 (centres unmarked) [Compound I-1016]
Ki [1]: > 3000 nM

Compound: Nc1n[nH]c2ccc(NC(=O)Cc3cccc(Cl)c3)cc12 [Compound I-82]
Ki [2]: 10000 to 20000 nM
